Results published in PubChem BioAssay AID190 (DTP/NCI, 2004).
“And” between values parts separate entries of the source, which are not always exact repeats. Identical values can stand only once. Toxic doses and inconclusive results are not listed. Rule for the calls: active = survival T/C of 150% or more; inactive = T/C below 125% in these data. Numbered stars: 1 amine (or outer) side, 2 acyl side, 3 side chain; on linkers, the order of the positions; unused ones are H or OH. Bridge positions count the residues as written; N and C are the ends. Square brackets hold non-standard residues; d marks the D form. Peptide text beside a SMILES is read from it. I, II: the chains in the order shown. Actinocin(9to1) = Cc1c2oc3c(C)ccc(C(=O)[*:1])c3nc-2c(C(=O)[*:2])c(N)c1=O; aThr = C[C@H](O)[C@H](N)C(=O)O; NMeV = CN[C@H](C(=O)O)C(C)C; Sar = CNCC(=O)O

Tested on: AKR/Lw mice, AKR lymphoma ip, median survival T/C
Test: NCI In Vivo Anticancer Drug Screen. Data for tumor model Lymphoma AKR (Transplanted) (intraperitoneal) in AKR/Lw mice
Settings: endpoint: median survival time, higher = longer survival
Description: The antitumor activity of compounds was measured in mice bearing transplantable tumors. Survival or tumor size were measured and the results are expressed as the measurement made in the treated group (T) divided by the measurement made in the vehicle treated control group (C). The tumor model used in this assay is Lymphoma AKR (Transplanted) (intraperitoneal) in AKR/Lw mice

[1] = dose: 100.0 mg/kg/injection, schedule: Q01DX001 (ip), vehicle: Klucel (hydroxypropylcellulose) (HPC)
[2] = dose: 200.0 mg/kg/injection, schedule: Q01DX001 (ip), vehicle: Klucel (hydroxypropylcellulose) (HPC)
[3] = dose: 400.0 mg/kg/injection, schedule: Q01DX001 (ip), vehicle: Klucel (hydroxypropylcellulose) (HPC)

Measured: T/C

O=C(O)CCCc1ccc(N(CCCl)CCCl)cc1
inactive: dose: 0.12 mg/kg/injection, schedule: Q01DX009 (ip), vehicle: Klucel (hydroxypropylcellulose) (HPC) 97 % of control | dose: 0.25 mg/kg/injection, schedule: Q01DX009 (ip), vehicle: Klucel (hydroxypropylcellulose) (HPC) 94 % of control and 96 % of control | dose: 0.5 mg/kg/injection, schedule: Q01DX009 (ip), vehicle: Klucel (hydroxypropylcellulose) (HPC) 100 % of control | dose: 1.0 mg/kg/injection, schedule: Q01DX009 (ip), vehicle: Klucel (hydroxypropylcellulose) (HPC) 96 % of control and 102 % of control | dose: 1.2 mg/kg/injection, schedule: Q01DX009 (ip), vehicle: Klucel (hydroxypropylcellulose) (HPC) 100 % of control | dose: 1.2 mg/kg/injection, schedule: Q04DX003 (ip), vehicle: Klucel (hydroxypropylcellulose) (HPC) 94 % of control | dose: 1.25 mg/kg/injection, schedule: Q04DX003 (ip), vehicle: saline 103 % of control | dose: 2.0 mg/kg/injection, schedule: Q01DX009 (ip), vehicle: Klucel (hydroxypropylcellulose) (HPC) 100 % of control | dose: 2.5 mg/kg/injection, schedule: Q01DX009 (ip), vehicle: Klucel (hydroxypropylcellulose) (HPC) 93 % of control and 107 % of control | dose: 2.5 mg/kg/injection, schedule: Q04DX003 (ip), vehicle: Klucel (hydroxypropylcellulose) (HPC) 100 % of control | dose: 2.5 mg/kg/injection, schedule: Q04DX003 (ip), vehicle: saline 86 % of control and 118 % of control | dose: 3.75 mg/kg/injection, schedule: Q01DX009 (ip), vehicle: saline 119 % of control | dose: 4.0 mg/kg/injection, schedule: Q01DX009 (ip), vehicle: Klucel (hydroxypropylcellulose) (HPC) 118 % of control | dose: 5.0 mg/kg/injection, schedule: Q01DX009 (ip), vehicle: Klucel (hydroxypropylcellulose) (HPC) 86 % of control and 110 % of control | dose: 5.0 mg/kg/injection, schedule: Q04DX003 (ip), vehicle: Klucel (hydroxypropylcellulose) (HPC) 100 % of control and 105 % of control and 117 % of control | dose: 5.0 mg/kg/injection, schedule: Q04DX003 (ip), vehicle: saline 93 % of control and 97 % of control | dose: 6.2 mg/kg/injection, schedule: Q01DX001 (ip), vehicle: Klucel (hydroxypropylcellulose) (HPC) 95 % of control and 120 % of control | dose: 6.25 mg/kg/injection, schedule: Q01DX009 (ip), vehicle: saline 97 % of control | dose: 7.5 mg/kg/injection, schedule: Q01DX009 (ip), vehicle: Klucel (hydroxypropylcellulose) (HPC) 106 % of control | dose: 7.5 mg/kg/injection, schedule: Q01DX009 (ip), vehicle: saline 122 % of control | dose: 12.5 mg/kg/injection, schedule: Q01DX001 (ip), vehicle: Klucel (hydroxypropylcellulose) (HPC) 109 % of control and 118 % of control | dose: 12.5 mg/kg/injection, schedule: Q01DX001 (ip), vehicle: saline 109 % of control and 111 % of control | dose: 15.0 mg/kg/injection, schedule: Q01DX009 (ip), vehicle: saline 122 % of control | dose: 20.0 mg/kg/injection, schedule: Q04DX003 (ip), vehicle: saline 94 % of control | dose: 40.0 mg/kg/injection, schedule: Q04DX003 (ip), vehicle: Klucel (hydroxypropylcellulose) (HPC) 100 % of control | [1] 104 % of control

O=C(/C=C/c1cccc([N+](=O)[O-])c1)NCCBr
inactive: [1] 102 % of control | [2] 104 % of control | [3] 86 % of control

CCCCCCCC(=O)NCCCC
inactive: [1] 96 % of control | [2] 96 % of control | [3] 92 % of control

O=C(NC(CSC(c1ccccc1)c1ccccc1)C(=O)O)OCc1ccccc1 (stereo not drawn)
inactive: [1] 95 % of control | [2] 93 % of control | [3] 95 % of control

Cc1c2oc3c(C)ccc(C(=O)N[C@@H]4C(=O)N[C@H](C(C)C)C(=O)N5CCC[C@H]5C(=O)N(C)CC(=O)N(C)[C@@H](C(C)C)C(=O)O[C@H]4C)c3nc-2c(C(=O)N[C@@H]2C(=O)N[C@H](C(C)C)C(=O)N3CCC[C@H]3C(=O)N(C)CC(=O)N(C)[C@@H](C(C)C)C(=O)O[C@H]2C)c(N)c1=O (I: [aThr][dV]P[Sar][NMeV] / II: [aThr][dV]P[Sar][NMeV]; ester I:1-I:C, II:1-II:C; linker I:N-II:N via Actinocin(9to1))
inactive: dose: 0.05 mg/kg/injection, schedule: Q01DX001 (ip), vehicle: saline 110 % of control | dose: 0.1 mg/kg/injection, schedule: Q01DX001 (ip), vehicle: saline 117 % of control | dose: 0.2 mg/kg/injection, schedule: Q01DX001 (ip), vehicle: saline 112 % of control | dose: 1.0 micrograms/kg/injection, schedule: Q01DX015 (ip), vehicle: saline 94 % of control | dose: 2.0 micrograms/kg/injection, schedule: Q01DX015 (ip), vehicle: saline 108 % of control | dose: 4.0 micrograms/kg/injection, schedule: Q01DX015 (ip), vehicle: saline 105 % of control | dose: 5.0 micrograms/kg/injection, schedule: Q01DX010 (ip), vehicle: saline 109 % of control | dose: 6.0 micrograms/kg/injection, schedule: Q01DX015 (ip), vehicle: saline 105 % of control | dose: 9.0 micrograms/kg/injection, schedule: Q01DX015 (ip), vehicle: saline 111 % of control | dose: 10.0 micrograms/kg/injection, schedule: Q01DX010 (ip), vehicle: saline 119 % of control | dose: 13.0 micrograms/kg/injection, schedule: Q01DX015 (ip), vehicle: saline 94 % of control | dose: 20.0 micrograms/kg/injection, schedule: Q01DX015 (ip), vehicle: saline 119 % of control

CO[C@H]1/C=C/O[C@@]2(C)Oc3c(C)c(O)c4c(O)c(c(/C=N/N5C(C)CN(Cc6ccccc6)CC5C)c(O)c4c3C2=O)NC(=O)/C(C)=C\C=C\[C@H](C)[C@H](O)[C@@H](C)[C@@H](O)[C@@H](C)[C@H](OC(C)=O)[C@@H]1C (stereo partly drawn)
inactive: dose: 12.5 mg/kg/injection, schedule: Q01DX008 (ip), vehicle: Klucel (hydroxypropylcellulose) (HPC) 99 % of control | dose: 25.0 mg/kg/injection, schedule: Q01DX008 (ip), vehicle: Klucel (hydroxypropylcellulose) (HPC) 104 % of control | dose: 50.0 mg/kg/injection, schedule: Q01DX008 (ip), vehicle: Klucel (hydroxypropylcellulose) (HPC) 91 % of control | dose: 100.0 mg/kg/injection, schedule: Q01DX008 (ip), vehicle: Klucel (hydroxypropylcellulose) (HPC) 103 % of control | dose: 200.0 mg/kg/injection, schedule: Q01DX008 (ip), vehicle: Klucel (hydroxypropylcellulose) (HPC) 96 % of control | dose: 400.0 mg/kg/injection, schedule: Q01DX008 (ip), vehicle: Klucel (hydroxypropylcellulose) (HPC) 95 % of control
